Reference: patent US8323909B2, “Methods of identifying small molecules for renewals, survival and migration of cardiac progenitors” (The Regents of the University of California, priority 2006, dated 2012)

Tested on: isl1+ cardiac progenitor cells
Experiment: Chemical compound screen with β-gal tagged isl1+ cardiac progenitors (luciferase/β-gal activity, β-gal+ cell count, isl1 immunohistochemistry)
Format: cell-based, mouse
Description: The inventors developed an assay based on the β-gal tagged cardiac progenitors to identify small molecules and defined factors that can trigger the renewal of the cardiac progenitors (FIGS. 4A and 4B). The isl1-mER-Cre-mER knock-in mice were utilized to conditionally mark embryonic and post-natal isl1+ cardiac progenitors. Mice which are double heterozygous for the isl1-mER-Cre-mER and the R26R-indicator allele allow the purification of a relatively homogeneous population of isl1+ cardiac progenitors after amplification on mesenchymal feeder layers.
The β-gal substrate 6-O-β-galactopyranosyl-luciferin allows luciferase-mediated detection of light emission in genetically lacZ labelled cells in a high throughput manner (FIGS. 4A and 4B). 6-O-galactopyranosyl-luciferin is cleaved by (3-gal into D-Luciferin, which is processed by luciferase in an ATP-dependent step into Oxyluciferin and light.
After screening a small molecule library containing over 15,000 compounds, a series of compounds that can trigger the expression of lacZ activity as well as the induction of the isl1 protein in cultured cardiac progenitor preparations was identified.
The screen was based on three independent read-out systems. First, the chemical compound library was screened for luciferase activity, and thereby indirectly for β-gal activity of proliferating cells. Second, β-gar progenitor cells were counted within the mesenchymal feeder layers with and without compound treatment, and third, expression of the transcription factor isl1^+ per progenitor cell was screened in an immunohistochemically based analysis.

Structure (SMILES): O=C1Nc2cc(Br)ccc2/C1=C1/Nc2ccccc2/C1=N\O [BIO, 6-bromoindirubin-3′-oxime]
- effect on the proliferation capacity of isl1+ cardiac progenitor cells: 50-80 fold
- β-galactosidase activity (cardiac progenitor cells from isl1-mER-Cre-mER/R26R mice, after 4 days in culture, luciferase assay): significant increase
- β-gal+ progenitor cell number (cells counted within mesenchymal feeder layers with and without compound treatment): significant increase
- proliferation of isl1+ precursor cells (result in words (FIG. 5 legend)): significant increase
